The values that follow come from ChEMBL document CHEMBL1144214, “Structure-activity relationships of compounds targeting mycobacterium tuberculosis 1-deoxy-D-xylulose 5-phosphate synthase” (Bioorg Med Chem Lett, 2008).

The target of assay [1] is T1, 1-deoxy-D-xylulose-5-phosphate synthase (Mycobacterium tuberculosis, UniProt P9WNS3).
T1 sequence (P9WNS3 whole entry): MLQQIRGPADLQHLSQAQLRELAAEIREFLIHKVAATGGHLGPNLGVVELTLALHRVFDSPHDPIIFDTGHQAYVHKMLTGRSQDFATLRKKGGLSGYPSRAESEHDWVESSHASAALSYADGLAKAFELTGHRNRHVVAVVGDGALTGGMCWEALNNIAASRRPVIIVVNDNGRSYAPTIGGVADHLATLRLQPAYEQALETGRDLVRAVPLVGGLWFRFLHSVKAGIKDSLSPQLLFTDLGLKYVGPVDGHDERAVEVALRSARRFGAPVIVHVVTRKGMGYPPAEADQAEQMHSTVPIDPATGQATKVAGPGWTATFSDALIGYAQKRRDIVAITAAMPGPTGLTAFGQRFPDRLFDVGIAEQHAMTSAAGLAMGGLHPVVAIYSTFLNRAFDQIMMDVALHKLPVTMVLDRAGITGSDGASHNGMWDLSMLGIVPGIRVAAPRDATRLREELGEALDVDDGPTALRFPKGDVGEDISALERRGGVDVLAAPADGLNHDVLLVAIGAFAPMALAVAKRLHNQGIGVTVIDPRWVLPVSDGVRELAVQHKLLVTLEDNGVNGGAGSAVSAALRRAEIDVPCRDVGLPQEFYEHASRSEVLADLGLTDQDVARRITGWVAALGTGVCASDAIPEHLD
The experiment in a line: Inhibition of Mycobacterium tuberculosis cloned 1-deoxy-D-xylulose-5-phosphate synthase expressed in Escherichia coli.

The subject of assay [2] is Mycobacterium tuberculosis. The experiment in a line: Antituberculosis activity against Mycobacterium tuberculosis. It is filed as functional.
Assay [3] can be described thus: Selectivity index, ratio of IC50 for african green monkey Vero cells to MIC for Mycobacterium tuberculosis. Type of assay: functional.
Another assay relates to Vero. The experiment in a line: Cytotoxicity against african green monkey Vero cells. Type of assay: cell-based. Conditions: Chlorocebus sabaeus.
A further assay addresses T2, Transketolase (Homo sapiens, UniProt P29401).
T2 sequence (P29401 whole entry): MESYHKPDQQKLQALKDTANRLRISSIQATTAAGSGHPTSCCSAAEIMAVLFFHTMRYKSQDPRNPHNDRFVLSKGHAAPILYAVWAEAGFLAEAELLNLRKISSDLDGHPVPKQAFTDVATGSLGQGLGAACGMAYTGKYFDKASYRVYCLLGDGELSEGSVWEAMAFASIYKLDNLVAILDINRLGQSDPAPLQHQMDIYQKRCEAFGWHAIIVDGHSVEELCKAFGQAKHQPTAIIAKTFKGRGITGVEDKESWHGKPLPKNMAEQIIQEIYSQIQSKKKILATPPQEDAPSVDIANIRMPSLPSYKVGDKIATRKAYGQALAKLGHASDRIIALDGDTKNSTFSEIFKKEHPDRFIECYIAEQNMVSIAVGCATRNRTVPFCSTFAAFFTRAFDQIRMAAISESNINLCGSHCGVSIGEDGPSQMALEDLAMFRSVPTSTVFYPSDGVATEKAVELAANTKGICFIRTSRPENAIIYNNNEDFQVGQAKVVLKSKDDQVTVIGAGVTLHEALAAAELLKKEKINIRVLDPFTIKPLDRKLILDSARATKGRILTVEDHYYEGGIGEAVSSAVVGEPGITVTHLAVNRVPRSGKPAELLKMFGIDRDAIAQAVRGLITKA
The experiment in a line: Inhibition of human recombinant transketolase expressed in Escherichia coli.

≈ marks a conversion by molar mass, not a printed value.

In turn, `Oc1cc(-c2ccccc2)nc2c(-c3ccccc3)c(C(F)(F)F)nn12` registered an IC50 in assay [1] of 23 µM.
Same read-out and setting: for `COc1ccc(-c2c(C(F)(F)F)nn3c(O)cc(-c4ccccc4)nc23)cc1` the value was 20.2 µM; for `CCOC(=O)Cc1c(C)nc2c(-c3ccccc3)cnn2c1O`, above 200 µM; for `Brc1cccc(-c2cnn3c(-c4ccccc4)cc(-c4ccccc4)nc23)c1`, above 200 µM.
In the case of `Cc1nn2c(=O)cc(CSc3ccc(Cl)cc3)[nH]c2c1-c1ccccc1`, half-maximal inhibition in assay [1] (IC50) was put at 63.7 µM.
`Cc1nn2c(=O)cc(-c3ccccc3)[nH]c2c1-c1ccc(Cl)cc1` showed an MIC in assay [2] of 14.2 µM (≈ 4.77 µg/mL). The IC50 is 34.2 µM in assay [1] and 39.5 µM in the assay on Vero. The “Selectivity Index” value in assay [3] worked out at 4.6.
`COCc1cc(=O)n2nc(C)c(-c3ccc(Cl)cc3)c2[nH]1` yielded an IC50 in assay [1] above 200 µM.
Still for that read-out and setting: for `Cc1nn2c(=O)cc(CSc3nnnn3-c3ccccc3)[nH]c2c1-c1ccc(Cl)cc1` the value was 55.1 µM.
On the same count and under the same terms, to `O=c1cc(Cc2ccccc2)[nH]c2c(-c3ccccc3)c(C(F)(F)F)nn12` belongs 71.1 µM; to `COCc1cc(=O)n2ncc(-c3ccc(Cl)cc3)c2[nH]1`, above 200 µM; to `Cc1cc(=O)n2ncc(-c3ccc(Cl)cc3)c2[nH]1`, above 200 µM.
For the compound `COc1ccc(-c2cc(=O)n3nc(C)c(-c4ccc(F)cc4)c3[nH]2)cc1`, in assay [2], the MIC was found to be 7.7 µM (≈ 2.69 µg/mL). For the same compound, the IC50 in assay [1] amounted to 10.6 µM; in the assay with Vero, 35.6 µM.
The compound `Cc1nn2c(=O)cc(-c3ccccc3)[nH]c2c1-c1ccccc1` came in with an IC50 in assay [1] of 30.6 µM.
On the same count and under the same terms, to `Cc1nn2c(=O)cc(-c3ccc4ccccc4c3)[nH]c2c1-c1ccccc1` belongs 19.5 µM.
On the same count and under the same terms, to `O=c1cc(CCl)[nH]c2c(-c3ccccc3)cnn12` belongs above 200 µM; to `COC(=O)Cc1cc(=O)n2nc(C(F)(F)F)c(-c3ccc(Br)cc3)c2[nH]1`, 73 µM.
Still for that read-out and setting: for `Cc1cc(=O)n2nc(C(F)(F)F)c(-c3ccc(Cl)cc3)c2[nH]1` the value was 98.4 µM.
`COc1ccc(-c2cc(=O)n3nc(C)c(-c4ccc(Cl)cc4)c3[nH]2)cc1`: the MIC in assay [2] turned out to be 7.6 µM (≈ 2.78 µg/mL). The values for the IC50 (in assay [1]; in the assay with Vero) were 10.9 µM and 16 µM, respectively.
On to `O=c1cc(Cc2ccccc2)[nH]c2c(-c3ccc(Cl)cc3)cnn12`, for which the IC50 in assay [1] amounted to 114 µM; on Transketolase, 3.9 µM.
In the case of `COc1ccc(-c2cc(=O)n3nc(C)c(-c4ccc(OC)cc4)c3[nH]2)cc1`, the MIC in assay [2] is 61.8 µM (≈ 22.3 µg/mL). The IC50 is 42.4 µM in assay [1] and 80.9 µM in the assay with Vero. Besides, the “Selectivity Index” value in assay [3] came out at 2.1.
The compound `CCc1nn2c(=O)cc(-c3ccc(OC)cc3)[nH]c2c1-c1ccc(Cl)cc1` displayed an IC50 in assay [1] of 19.7 µM.
In assay [1], `FC(F)(F)c1cc(-c2ccc(Cl)cc2)nc2c(-c3ccc(Cl)cc3)cnn12` returned an IC50 above 200 µM.
Still for that read-out and setting: to `O=c1cc(Cc2ccccc2)[nH]c2c(-c3ccc(Cl)cc3)c(C(F)(F)F)nn12` belongs 14 µM.
In assay [1], `Cc1nn2c(=O)cc(CSc3ccc(Cl)cc3)[nH]c2c1-c1ccc(Cl)cc1` showed an IC50 of 41.4 µM.
In the case of `COc1ccccc1-c1cc(=O)n2nc(C)c(-c3ccc(Br)cc3)c2[nH]1`, in assay [1], inhibition was half-maximal at 53.5 µM (IC50).
Compound `COc1ccc(-c2c(C)nn3c(=O)cc(-c4ccccc4)[nH]c23)cc1` displayed an IC50 in assay [1] of 90.7 µM.
Regarding `Cc1[nH]c2c(-c3ccc(Cl)cc3)c(C(F)(F)F)nn2c(=O)c1Cc1ccccc1`, the IC50 in assay [1] is above 200 µM.
Same read-out and setting: to `Cc1cc(=O)n2nc(C(F)(F)F)c(-c3ccc(Br)cc3)c2[nH]1` belongs above 200 µM.
